In the OligoGym collection:
Several values for one entry are separate records, joined by “and”; a condition that tells them apart may be missing. Equal entries are not always repeated. After the bases stand the sugars from the 5' end (letter, count) and the backbone: PS all phosphorothioate, else s phosphorothioate and o phosphodiester by linkage. HELM strings list units from the 5' end as sugar, base in round brackets, then linkage (d deoxyribose, r ribose, m 2'-O-methyl, p phosphodiester). Methylation of C is not given here. [moe] = 2'-O-(2-methoxyethyl) (MOE); [cEt] = constrained ethyl (cEt); [sp] = phosphorothioate linkage; e = 2'-O-(2-methoxyethyl) (MOE); d = 2'-deoxy (DNA)

Assays:
[1] = target: HBV; details: ASO
[2] = target: DGAT2; details: ASO

| Substance | target mRNA inhibition ([2]; HepG2, 0.12 µM) | target mRNA inhibition ([2]; HepG2, 2.5 µM) | target mRNA inhibition ([2]; HepG2, 10 µM) | other results |
| --- | --- | --- | --- | --- |
| RNA1{[moe](A)[sp].[moe](G)[sp].[moe](A)[sp].[moe](A)[sp].[moe](G)[sp].d(T)[sp].d(C)[sp].d(C)[sp].d(A)[sp].d(C)[sp].d(C)[sp].d(A)[sp].d(C)[sp].d(G)[sp].[moe](A)[sp].[moe](G)[sp].[moe](T)}$$$$V2.0 |  |  |  | target mRNA inhibition ([1]; HepG2, 0.07 µM): 11% and 0% |
| RNA1{[moe](A)[sp].[moe](C)[sp].[moe](C)[sp].d(A)[sp].d(C)[sp].d(T)[sp].d(G)[sp].d(A)[sp].d(A)[sp].d(C)[sp].d(A)[sp].d(A)[sp].[moe](A)[sp].[moe](T)[sp].[moe](G)[sp].[moe](G)}$$$$V2.0 |  |  |  | target mRNA inhibition ([1]; HepG2, 0.07 µM): 0% and 3% |
| RNA1{[moe](C)[sp].[moe](T)[sp].[moe](A)[sp].[moe](G)[sp].d(T)[sp].d(A)[sp].d(A)[sp].d(A)[sp].d(C)[sp].d(T)[sp].d(G)[sp].d(A)[sp].d(G)[sp].[moe](C)[sp].[moe](C)[sp].[moe](A)}$$$$V2.0 |  |  |  | target mRNA inhibition ([1]; HepG2, 0.07 µM): 66% and 65% |
| RNA1{[moe](G)[sp].[cEt](T)[sp].d(G)[sp].d(A)[sp].d(A)[sp].d(G)[sp].d(C)[sp].d(G)[sp].d(A)[sp].d(A)[sp].d(G)[sp].d(T)[sp].[cEt](G)[sp].[moe](C)[sp].[cEt](A)[sp].[moe](C)}$$$$V2.0 |  |  |  | target mRNA inhibition ([1]; HepG2, 0.0092593 µM): 18%; target mRNA inhibition ([1]; HepG2, 0.0277778 µM): 36%; target mRNA inhibition ([1]; HepG2, 0.07 µM): 81% and 80%; target mRNA inhibition ([1]; HepG2, 0.0833333 µM): 75%; target mRNA inhibition ([1]; HepG2, 0.25 µM): 88% |
| RNA1{[moe](G)[sp].[moe](C)[sp].[moe](A)[sp].d(G)[sp].d(A)[sp].d(G)[sp].d(G)[sp].d(T)[sp].d(G)[sp].d(A)[sp].d(A)[sp].d(G)[sp].[moe](C)[sp].[moe](G)[sp].[moe](A)[sp].[moe](A)}$$$$V2.0 |  |  |  | target mRNA inhibition ([1]; HepG2, 0.07 µM): 58% and 64% |
| RNA1{[moe](T)[sp].[moe](C)[sp].d(C)[sp].d(G)[sp].d(C)[sp].d(A)[sp].d(G)[sp].d(T)[sp].d(A)[sp].d(T)[sp].d(G)[sp].[moe](G)[sp].[moe](A)[sp].[moe](T)[sp].[moe](C)[sp].[moe](G)[sp].[moe](G)}$$$$V2.0 |  |  |  | target mRNA inhibition ([1]; HepG2, 0.07 µM): 74% and 70% |
| RNA1{[moe](A)[sp].[moe](G)[sp].d(G)[sp].d(C)[sp].d(A)[sp].d(T)[sp].d(A)[sp].d(G)[sp].d(C)[sp].d(A)[sp].d(G)[sp].[moe](C)[sp].[moe](A)[sp].[moe](G)[sp].[moe](G)[sp].[moe](A)}$$$$V2.0 |  |  |  | target mRNA inhibition ([1]; HepG2, 0.07 µM): 57% and 51% |
| RNA1{[moe](G)[sp].[moe](C)[sp].d(A)[sp].d(T)[sp].d(A)[sp].d(G)[sp].d(C)[sp].d(A)[sp].d(G)[sp].d(C)[sp].d(A)[sp].[moe](G)[sp].[moe](G)[sp].[moe](A)[sp].[moe](T)[sp].[moe](G)}$$$$V2.0 |  |  |  | target mRNA inhibition ([1]; HepG2, 0.07 µM): 39% and 24% |
| RNA1{[moe](G)[sp].[moe](A)[sp].[moe](A)[sp].d(C)[sp].d(A)[sp].d(A)[sp].d(A)[sp].d(T)[sp].d(G)[sp].d(G)[sp].d(C)[sp].d(A)[sp].d(C)[sp].[cEt](T)[sp].[cEt](A)[sp].[cEt](G)}$$$$V2.0 |  |  |  | target mRNA inhibition ([1]; HepG2, 0.0092593 µM): 15%; target mRNA inhibition ([1]; HepG2, 0.0277778 µM): 40%; target mRNA inhibition ([1]; HepG2, 0.07 µM): 80% and 81%; target mRNA inhibition ([1]; HepG2, 0.0833333 µM): 69%; target mRNA inhibition ([1]; HepG2, 0.25 µM): 86% |
| RNA1{[moe](A)[sp].[moe](C)[sp].[moe](C)[sp].d(A)[sp].d(C)[sp].d(T)[sp].d(G)[sp].d(A)[sp].d(A)[sp].d(C)[sp].d(A)[sp].d(A)[sp].[moe](A)[sp].[moe](T)[sp].[moe](G)[sp].[moe](G)[sp].[moe](C)}$$$$V2.0 |  |  |  | target mRNA inhibition ([1]; HepG2, 0.07 µM): 78% |
| RNA1{[moe](C)[sp].[moe](A)[sp].[moe](A)[sp].[moe](T)[sp].d(T)[sp].d(T)[sp].d(A)[sp].d(T)[sp].d(G)[sp].d(C)[sp].d(C)[sp].d(T)[sp].d(A)[sp].[moe](C)[sp].[moe](A)[sp].[moe](G)[sp].[moe](C)}$$$$V2.0 |  |  |  | target mRNA inhibition ([1]; HepG2, 0.07 µM): 34% and 25% |
| RNA1{[moe](A)[sp].[moe](C)[sp].d(T)[sp].d(A)[sp].d(G)[sp].d(T)[sp].d(A)[sp].d(A)[sp].d(A)[sp].d(C)[sp].d(T)[sp].[moe](G)[sp].[moe](A)[sp].[moe](G)[sp].[moe](C)[sp].[moe](C)[sp].[moe](A)}$$$$V2.0 |  |  |  | target mRNA inhibition ([1]; HepG2, 0.07 µM): 61% |
| RNA1{[moe](C)[sp].[cEt](A)[sp].[cEt](G)[sp].d(C)[sp].d(A)[sp].d(A)[sp].d(A)[sp].d(C)[sp].d(A)[sp].d(C)[sp].d(T)[sp].d(T)[sp].d(G)[sp].[cEt](G)[sp].[cEt](C)[sp].[moe](A)}$$$$V2.0 |  |  |  | target mRNA inhibition ([1]; HepG2, 0.07 µM): 62% and 61% |
| RNA1{[moe](C)[sp].[moe](C)[sp].[moe](A)[sp].[moe](C)[sp].d(T)[sp].d(G)[sp].d(A)[sp].d(A)[sp].d(C)[sp].d(A)[sp].d(A)[sp].d(A)[sp].d(T)[sp].[moe](G)[sp].[moe](G)[sp].[moe](C)}$$$$V2.0 |  |  |  | target mRNA inhibition ([1]; HepG2, 0.07 µM): 57% and 68% |
| CCAACAGTGGTGATGGGCTT (sugars e5 d10 e5, PS) | 60% |  |  |  |
| GCAGTCTGCCTGATTCCCTT (sugars e5 d10 e5, PS) |  | 60% | 93% |  |
| AGCCTGGACAAGTCCTGCCC (sugars e3 d14 e3, PS) | 82% | 35% and 53% | 84% | target mRNA inhibition ([2]; HepG2, 20 µM): 59% |
| AAGCCCTTGCGGTTCCGCAG (sugars e5 d10 e5, PS) | 67% |  |  |  |
| TGCAATGTTGCCATCATACT (sugars e5 d10 e5, PS) |  | 65% and 49% | 91% and 83% |  |
| TACCTGCTATGCTGAGAGCA (sugars e5 d10 e5, PS) |  | 65% | 80% |  |

| Substance | target mRNA inhibition ([2]; HepG2, 0.12 µM) | target mRNA inhibition ([2]; HepG2, 2.5 µM) | target mRNA inhibition ([2]; HepG2, 10 µM) | other results |
| --- | --- | --- | --- | --- |
| CCACAGCGATAATCACA (sugars e3 d10 e4, PS) |  | 63% and 60% | 84% and 75% |  |
| CAGGGTCTGCCACTCTCTAC (sugars e5 d10 e5, PS) |  | 56% | 85% |  |
| ACCAGGGCCTCCATGTACAT (sugars e5 d10 e5, PS) |  | 30% | 32% and 50% | target mRNA inhibition ([2]; HepG2, 20 µM): 48% |
| TCCCATTCTTTGAAAGCAAA (sugars e5 d10 e5, PS) | 31% |  |  |  |
| AAAGATATAGTTCCTGGTGG (sugars e5 d10 e5, PS) | 54% |  |  |  |
| TTGCTTAAACAGATAAGCAC (sugars e5 d10 e5, PS) | 17% |  |  |  |
| TGACCAGGAAGGCCACACCT (sugars e5 d10 e5, PS) | 15% |  |  |  |
| TAGCCAGGTAAGGCCGTATG (sugars e2 d13 e5, PS) | 51% |  |  |  |
| AGGTAAGGCCGTATGCCTGG (sugars e2 d13 e5, PS) | 63% |  |  |  |
| AAATGGTAGCCCCTTGTTGC (sugars e5 d10 e5, PS) | 32% |  |  |  |
| GGCAGATCTTCATTACATGA (sugars e5 d10 e5, PS) |  | 75% and 70% | 80% and 78% |  |
| ACCCACTGGAGCACTGAGAT (sugars e3 d14 e3, PS) | 59% |  |  |  |
| GACAATGAGTAAGGGTATTC (sugars e5 d10 e5, PS) |  | 48% | 83% |  |
| TGCGCGATTCACTGAGGACC (sugars e5 d10 e5, PS) |  | 51% | 87% |  |
| CAGCCTGGACAAGTCCTGCC (sugars e3 d14 e3, PS) | 72% |  |  |  |
| CAGCAGGTTGTGTGTCTTCA (sugars e3 d14 e3, PS) | 47% |  |  |  |
| ATCCATGTCAGAGAGGCTCA (sugars e5 d10 e5, PS) |  | 66% | 88% |  |
| GTAAGCCTCGGTGTCCT (sugars e3 d10 e4, PS) |  | 62% | 79% |  |
| AGCAATGCCAATGCCTAGGT (sugars e5 d10 e5, PS) |  | 82% | 93% |  |
| AGGACCCCGGAGTAGGCGGC (sugars e3 d14 e3, PS) | 76% |  |  |  |

| Substance | target mRNA inhibition ([2]; HepG2, 0.12 µM) | target mRNA inhibition ([2]; HepG2, 2.5 µM) | target mRNA inhibition ([2]; HepG2, 10 µM) | other results |
| --- | --- | --- | --- | --- |
| GCAGGTTCATCTGCCTT (sugars e3 d10 e4, PS) |  | 54% | 82% |  |
| TTCACCTCCAGGACCTCAGT (sugars e5 d10 e5, PS) | 46% |  |  |  |
| CAGCCTGGACAAGTCCTGCC (sugars e5 d10 e5, PS) | 84% |  | 81% and 90% and 88% | target mRNA inhibition ([2]; HepG2, 20 µM): 86% |
| GGAGCAGGCCTCGGGAAGCA (sugars e5 d10 e5, PS) |  | 38% | 85% |  |
| TCAGAGACTCAGCCGCACCC (sugars e3 d14 e3, PS) | 41% |  |  |  |
| AAACCACTGTTGCTGAGCTC (sugars e5 d10 e5, PS) |  | 71% and 58% | 84% and 73% |  |
| CTCTGCTTCTTGGGCATCTG (sugars e5 d10 e5, PS) |  | 78% and 70% | 90% and 85% |  |
| ATTTCTTTTAAATAACCCAC (sugars e5 d10 e5, PS) | 1% |  |  |  |
| CCCACTGGAGCACTGAGATG (sugars e5 d10 e5, PS) | 78% |  |  |  |
| CCTGGACAAGTCCTGCCCAT (sugars e3 d14 e3, PS) | 70% |  |  |  |
| GATCTCAGTCACTGACTCAC (sugars e5 d10 e5, PS) |  | 57% | 91% |  |
| ACAGCTGTGATGACTTCCCA (sugars e5 d10 e5, PS) |  | 88% | 77% |  |
| GACAGGACCCACTGGAGCAC (sugars e5 d10 e5, PS) | 44% and 69% |  |  |  |
| AGTCAAACCTAGGTTCAGAC (sugars e5 d10 e5, PS) |  | 81% | 55% |  |
| TGGCCCTGTGCTCTGTGGGC (sugars e5 d10 e5, PS) |  |  | 35% and 33% |  |
| CCACTGGAGCACTGAGATGA (sugars e2 d13 e5, PS) | 54% |  |  |  |
| CCTCGATGTTACATTAAGGG (sugars e5 d10 e5, PS) |  | 82% and 88% | 86% and 90% |  |
| TCAGCAGGTTGTGTGTCTTC (sugars e3 d14 e3, PS) | 54% |  |  |  |
| ATAGCATTGCCACTCCCATT (sugars e2 d13 e5, PS) | 57% |  |  |  |
| TGACTGCATTCTTGCCAGGC (sugars e5 d10 e5, PS) |  | 16% | 69% |  |
